Earlier results as cited in patent publication US20100209348A1, “METHODS FOR DETERMINING LIPOSOME BIOEQUIVALENCE” (Arondo Pharma, Inc., priority 2009, published 2010).
Where a name gives a salt, the structure may show the parent alone.

Details: IV infusion up to 60 min, up to 60 mg/m^2 every 3 weeks (dose rate 20 mg/m^2/week)

In the case of `COc1cccc2c1C(=O)c1c(O)c3c(c(O)c1C2=O)C[C@@](O)(C(=O)CO)C[C@@H]3O[C@H]1C[C@H](N)[C@H](O)[C@H](C)O1` [doxorubicin, Doxorubicin HCl], the “clinically significant PPE” value is given as “does not typically cause clinically significant PPE”.
